# Test results: US20050239842A1, “Methods of using and compositions comprising immunomodulatory compounds for the treatment and management of pulmonary hypertension” (priority 2004, published 2005)
# Experiments:
# [1] = cited from earlier work
# [2] = tested on: production of various cytokines; test: In vitro pharmacological activity profile compared with thalidomide; type: cell-based; details: in vitro studies
# Description: The pharmacological properties of 3-(4-amino-1 -oxo-1,3-dihydro-isoindol-2-yl)-piperidine-2,6-dione, including activity comparisons with thalidomide, have been characterized in in vitro studies. Studies examined the effects of 3-(4-amino-1-oxo-1,3-dihydro-isoindol-2-yl)-piperidine-2,6-dione or thalidomide on the production of various cytokines.
# The pharmacological effects of 3-(4-amino-1-oxo-1,3-dihydro-isoindol-2-yl)-piperidine-2,6-dione derive from its action as an inhibitor of cellular response to receptor-initiated trophic signals (e.g., IGF-1, VEGF, […]), and other activities. As a result, 3-(4-amino-1-oxo-1,3-dihydro-isoindol-2-yl)-piperidine-2,6-dione suppresses the generation of inflammatory cytokines, down-regulates adhesion molecules and apoptosis inhibitory proteins (e.g., cFLIP, clAP), promotes sensitivity to death-receptor initiated programmed cell death, and suppresses angiogenic response.
# patients with PH [3] = test: Expanded clinical study in PH patients, WHO functional class III or IV, 16 weeks; type: in vivo, human
# Experimental: On the basis of the results of the above study 2, the clinical study is expanded with additional 213 PH patients for at least 16 weeks. The study is conducted with patients with PH, WHO functional class III or IV. Two hundred thirteen patients are randomized to receive either 5 mg bid or 10 mg bid of 3-(4-amino-1-oxo-1,3-dihydro-isoindol-2-yl)-piperidine-2,6-dione or placebo in a 1:1:1 ratio. The primary endpoint, a 6-minute walk distance, is evaluated at 16 weeks. The treated patients walk 36.4 meters further at 16 weeks compared to a 7.8 meter reduction in walk distance in the placebo group, for a treatment effect of 44.2 meters. Clinical worsening, defined by death, premature withdrawal from study, hospitalization for worsening of PH or institution of epoprostenol, occur in 37% of placebo-treated patients, compared with 11% of the patients treated with the compound of the invention.
# patients with PH [4] = test: Clinical Study 2 in PH patients, 12 weeks, placebo controlled; type: in vivo, human
# Experimental: In one embodiment of the invention, 3-(4-amino-1-oxo-1,3-dihydro-isoindol-2-yl)-piperidine-2,6-dione is administered in a single or divided daily doses in an amount of from about 1 to about 100 mg/day. In another embodiment of the invention, 3-(4-amino-1-oxo-1,3-dihydro-isoindol-2-yl)-piperidine-2,6-dione is administered from about 1 to about 20 mg/day individually. The compound is administered to patients with PH for 12 weeks, who are subsequently evaluated for a decline in walk distance, dyspnea score, functional class, pulmonary hemodynamic response. The first study enrolls 32 patients with PH. Patients are all in modified New York Heart Association functional class III at the onset of the study. Patents are maximally treated and are stable on conventional therapy, including calcium channel antagonists and diuretics. Two thirds of patients receive 5 mg of 3-(4-amino-1-oxo-1,3-dihydro-isoindol-2-yl)-piperidine-2,6-dione for four weeks followed by 10 mg of the compound for eight weeks. One third of patients receive placebo. The primary efficacy endpoint is a 6-minute walk distance. Patients receiving the compound of the invention walk an average of 70 meters farther after 12 weeks while placebo patients have a decline in walk distance. In addition, the treated patients have improvements in dyspnea score and functional class compared with placebo patients. Pulmonary hemodynamic measurements reveal decreases in pulmonary arterial pressure and pulmonary vascular resistance, and increase in cardiac output after 12 weeks of the treatment, compared with worsening of pulmonary hemodynamics in placebo patients. All these changes in treated patients are highly significant compared with placebo.
SMILES,stability among forms in aqueous solvent systems [1],potency relative to thalidomide [2],treatment effect on 6-minute walk distance versus placebo (patients with PH [3]; at 16 weeks),"6-minute walk distance, increase (patients with PH [3]; at 16 weeks, 5 mg bid or 10 mg bid)","clinical worsening (death, premature withdrawal, hospitalization for worsening of PH or institution of epoprostenol), share of patients (patients with PH [3]; treated patients)",functional class (patients with PH [3]; treated versus placebo patients),"dyspnea score and functional class (patients with PH [4]; 12 weeks, compared with placebo patients)",cardiac output (patients with PH [4]; after 12 weeks of treatment),pulmonary arterial pressure and pulmonary vascular resistance (patients with PH [4]; after 12 weeks of treatment),"6-minute walk distance, average increase (patients with PH [4]; after 12 weeks, 5 mg for four weeks then 10 mg for eight weeks)"
"Nc1cccc2c1CN(C1CCC(=O)NC1=O)C2=O (stereo not shown) [Form E, 3-(4-amino-1-oxo-1,3 dihydro-isoindol-2-yl)-piperidene-2,6-dione]",most stable form,,,,,,,,,
"Nc1cccc2c1CN(C1CCC(=O)NC1=O)C2=O (stereo not shown) [3-(4-amino-1-oxo-1,3-dihydro-isoindol-2-yl)-piperidine-2,6-dione]",,"50 to 2,000 times",44.2 meters,36.4 meters,11%,improved significantly more,improvements,increase,decreases,70 meters
